The values below come from patent US20080267903A1, “Bioactive Polymers” (priority 2004, published 2008).

“And” between values parts separate entries of the source, which are not always exact repeats. Identical values can stand only once.

The conditions of data set [1]: cited from earlier work.
The test system of data set [2] is C33a Human Cervix Carcinoma (ATCC HTB31) xenografts. As to the kind of experiment: Established C33a xenografts, treatment q.2d 5x (FIG. 5). Format: in vivo, mice. As to conditions: C33a cervix carcinomas, q.2d 5x i.v. As for the experimental part:
(§1) Female mice (CD1-nu, initial mean weight 20 g) were housed in groups of five in suspended plastic cages at 19-23° C. with a 12 h light-dark cycle. A conventional diet (Rat and Mouse Standard Expanded, B and K Universal, Grimston, UK) and water from the mains were available ad libidum. Experimental work was carried out in accordance with UK Home Office regulations and approved by the local ethics committee.
(§2) Tumour cells [LS174 Human Colorectal Adenocarcinoma (ATCC CL-188), A431 Epidermoid Carcinoma (ATCC CRL-1555), C33a Human Cervix Carcinoma (ATCC HTB31)] were grown as monolayers in 75 cm^2 flasks in Dulbecco's Modified Eagle's Medium (DMEM) supplemented with 10% (v/v) foetal bovine serum (FBS) and 1% (v/v) glutamine, in a humid atmosphere of 5% CO2 at 37° C. Medium was changed twice a week. Cells were subcultured every seven days by trypsin treatment and experiments were conducted when the cells were in exponential phase. […]
(§3) Animals were injected intravenously (0.2 ml per injection) with the different formulations either once or alternatively on a schedule every other day (0.5 q.d.) over 10 days (every second day, 5 injection). […] Animals were monitored at regular intervals, the tumour size was determined using callipers, and body weight measured and recorded. Expression of genes containined on nucleic acids complexed with the various polymers was measured as described previously.

The subject of data set [3] is LS174T Human Colorectal Adenocarcinoma (ATCC CCL-188) xenografts. As to the kind of experiment: Established LS174T xenografts, treatment q.2d 5x (FIG. 4). Type of data set: in vivo, mice. As to conditions: LS174T colorectal tumours, q.2d 5x i.v. As for the experimental part:
as §1, §2, §3

Data set [4] relates to A431 epidermoid carcinoma (ATCC CRL-1555). As to the kind of experiment: Established A431 xenografts, repeated injection every 2nd day over 10 days, long-term follow-up (FIGS. 6-8).
Procedure: A431 epidermoid carcinoma tumours were grafted into nude CD-1 mice and left to establish (˜5 mm). Animals were treated by injection of the relevant formulation every 2nd day over 10 days (5 injections). […] Tumour volume doubling time was measured as a surrogate endpoint as substantial tumour growth immediately precedes tumour related mortality.
All formulations were prepared as solutions (or suspensions) in 5% dextrose.
(§4) Animals were injected intravenously (0.2 ml per injection) with the different formulations either once or alternatively on a schedule every other day (0.5 q.d.) over 10 days (every second day, 5 injection). […] Each group consisted of 5 animals (n=5). As a control DAB 16-DNA complexes were prepared as previously described [36] by mixing dendrimer and DNA (50 μg) at a 5:1 weight ratio in a 5% dextrose solution (200 μl/animal). Free plasmid DNA (50 μg) was given in 200 μL 5% dextrose. Animals were monitored at regular intervals, the tumour size was determined using callipers, and body weight measured and recorded.
Data set [5] in a line: Systemic toxicity, tolerability and body weight after intravenous injection (FIG. 3). Format: in vivo.
Procedure: All formulations were prepared as solutions (or suspensions) in 5% dextrose. Each dose contained 250 μg of DAB 4, DAB 16, DAB 32, QDAB8, respectively. The PAMAM dendrimer and linear PEI were given as dilutions of Superfect (100 μl per animal) and Exgen (9 μl per animal) respectively, in 5% dextrose solution.
as §4
Data set [6] deals with A431 epidermoid carcinoma cells. Nature of the data set: Cytostatic effects of cationic polymers on tumour cells in vitro (FIG. 1). Format: cell-based. As to conditions: lysis control. As for the experimental part:
A431 epidermoid carcinoma cells were treated with various cationic polymers. PEI, Superfect and various DAB polymers were added to the culture medium at concentrations of 0.45 μL/mL, 5 μL/mL and 12.5 μg/mL respectively for the duration of the experiment.

On to `C[C@H](N)C(=O)O` [Alanine], for which the “pKa of the α-NH3+ group” value in data set [1] is reported as 9.9.
For the molecule `NCCCN(CCCN)CCCN(CCCN(CCCN)CCCN)CCCN(CCCCN(CCCN(CCCN(CCCN)CCCN)CCCN(CCCN)CCCN)CCCN(CCCN(CCCN)CCCN)CCCN(CCCN)CCCN)CCCN(CCCN(CCCN)CCCN)CCCN(CCCN)CCCN` [DAB16], the tumour growth entry in data set [2] is given as “inhibited tumour growth significantly”. Besides, in data set [3], the tumour growth result is on record as “inhibited tumour growth significantly”. Also, the “survival of the treated mice” value in data set [4] (0.5 q.d. X5, long term experiment) is listed as “long term survival”. In data set [4] (0.5 q.d. X5, n=5), the “complete disappearance of tumours, 2 mice” value was 43 days and 51 days; the “start of decrease of the tumour size, 2 mice” value stood at 23 days; the “start of decrease of the tumour size, all the mice” value turned out to be 33 days. Also, the “long-term tumour growth delay (tumour volume doubling time as surrogate endpoint)” value in data set [4] (5 injections over 10 days, FIG. 7) is given as “improved long-term growth reduction”. Besides, the tumour growth entry in data set [4] (A431 epidermoid carcinoma model, q.2d 5x i.v.) is on record as “inhibited tumour growth significantly”.
As to `NCCCN(CCCN)CCCN(CCCCN(CCCN(CCCN)CCCN)CCCN(CCCN)CCCN)CCCN(CCCN)CCCN` [DAB8], the “time to death after i.v. injection” value in data set [5] lay within 5 to 10 s.
With `N[C@@H](CC(=O)O)C(=O)O` [Aspartic acid], the “pKa of the α-NH3+ group” value in data set [1] was 10.0.
With `N[C@@H](CO)C(=O)O` [Serine], in data set [1], the “pKa of the α-NH3+ group” value is 9.1.
On to triton X, for which the cell number entry in data set [6] is recorded as “decrease in cell number consistent with cell lysis”.
